Active and inactive are the calls of the source. No cut-off for these calls is given here.
Key:
[1] = Ionophoric activity across pyranine dye encapsulated pH 7 egg yolk L-alpha-phosphatidylcholine-based liposomal membranes assessed as iodide ion transport by measuring induction of pH discharge at 0.25 mol% after 20 mins in presence of NaI loaded external vesicles by fluorescence method
[2] = Binding affinity to chloride ion assessed as 1:1 compound-Cl- complex formation at 4.1 mM using tetra(n-butyl)ammonium chloride by ESI MS spectrometric method
[3] = Ionophoric activity across pyranine dye encapsulated pH 7 egg yolk L-alpha-phosphatidylcholine-based liposomal membranes assessed as chloride ion transport by measuring induction of pH discharge at 0.25 mol% after 20 mins in presence of CsCl loaded external vesicles by fluorescence method
HepG2 [4] = assay: Cytotoxicity against human HepG2 cells assessed as reduction in cell viability at 50 uM after 48 hrs by MTT assay relative to control; format: functional; details: HepG2, 48 h
[5] = Ionophoric activity across lucigenin probe encapsulated pH 7 egg yolk L-alpha-phosphatidylcholine-based large unilamellar vesicles loaded with Na2SO4 assessed as chloride ion efflux at 1 mol% after 20 mins in presence of NaCl loaded external vesicles by fluorescence method
[6] = Ionophoric activity across pyranine dye encapsulated pH 7 egg yolk L-alpha-phosphatidylcholine-based liposomal membranes assessed as chloride ion transport by measuring initial rate constant for induction of pH discharge at 1.0 mol% after 20 mins in presence of NaCl loaded external vesicles by fluorescence method (reference value: 5.03 +/- 1.02 10^-3/min)
MCF7 [7] = assay: Cytotoxicity against human MCF7 cells assessed as reduction in cell viability at 50 uM after 48 hrs by MTT assay relative to control; format: functional; details: MCF7, 48 h
[8] = Ionophoric activity across pyranine dye encapsulated pH 7 egg yolk L-alpha-phosphatidylcholine-based liposomal membranes assessed as chloride ion transport by measuring initial rate constant for induction of pH discharge at 0.1250 mol% after 20 mins in presence of NaCl loaded external vesicles by fluorescence method (reference value: 5.03 +/- 1.02 10^-3/min)
[9] = Ionophoric activity across pyranine dye encapsulated pH 7 egg yolk L-alpha-phosphatidylcholine-based liposomal membranes assessed as chloride ion transport by measuring initial rate constant for induction of pH discharge at 0.0625 mol% after 20 mins in presence of NaCl loaded external vesicles by fluorescence method (reference value: 5.03 +/- 1.02 10^-3/min)
[10] = Ionophoric activity across pyranine dye encapsulated pH 7 egg yolk L-alpha-phosphatidylcholine-based liposomal membranes assessed as chloride ion transport by measuring induction of pH discharge at 0.25 mol% after 20 mins in presence of LiCl loaded external vesicles by fluorescence method
[11] = Ionophoric activity across pyranine dye encapsulated pH 7 egg yolk L-alpha-phosphatidylcholine-based liposomal membranes assessed as bromide ion transport by measuring induction of pH discharge at 0.25 mol% after 20 mins in presence of NaBr loaded external vesicles by fluorescence method
[12] = Ionophoric activity across pyranine dye encapsulated pH 7 egg yolk L-alpha-phosphatidylcholine-based liposomal membranes assessed as chloride ion transport by measuring induction of pH discharge at 0.25 mol% after 20 mins in presence of NaCl loaded external vesicles by fluorescence method
[13] = Ionophoric activity across pyranine dye encapsulated pH 7 egg yolk L-alpha-phosphatidylcholine-based liposomal membranes assessed as chloride ion transport by measuring induction of pH discharge at 0.25 mol% after 20 mins in presence of KCl loaded external vesicles by fluorescence method
[14] = Ionophoric activity across pyranine dye encapsulated pH 7 egg yolk L-alpha-phosphatidylcholine-based liposomal membranes assessed as chloride ion transport by measuring induction of pH discharge at 0.25 mol% after 20 mins in presence of RbCl loaded external vesicles by fluorescence method
[15] = Ionophoric activity across pyranine dye encapsulated pH 7 POPC-cholesterol-based liposomal membranes assessed as chloride ion transport by measuring induction of pH discharge at 1 mol% after 20 mins in presence of NaCl loaded external vesicles by fluorescence method
[16] = Ionophoric activity across pyranine dye encapsulated pH 7 egg yolk L-alpha-phosphatidylcholine-based liposomal membranes assessed as chloride ion transport by measuring induction of pH discharge after 20 mins in presence of NaCl loaded external vesicles by fluorescence method relative to m-Bimbe
[17] = Ionophoric activity across pyranine dye encapsulated pH 7 egg yolk L-alpha-phosphatidylcholine-based liposomal membranes assessed as chloride ion transport by measuring initial rate constant for induction of pH discharge at 0.2500 mol% after 20 mins in presence of NaCl loaded external vesicles by fluorescence method (reference value: 5.03 +/- 1.02 10^-3/min)
[18] = Binding affinity to chloride ion at 1.5 x 10^-5M using tetra(n-butyl)ammonium chloride measured after 5 mins by spectrophotometric titration method
[19] = Ionophoric activity across pyranine dye encapsulated pH 7 egg yolk L-alpha-phosphatidylcholine-based liposomal membranes assessed as chloride ion transport by measuring induction of pH discharge after 20 mins in presence of NaCl loaded external vesicles by fluorescence method
[20] = Ionophoric activity across lucigenin probe encapsulated pH 7 egg yolk L-alpha-phosphatidylcholine-based large unilamellar vesicles loaded with NaNO3 assessed as chloride ion efflux at 0.0625 to 1 mol% after 20 mins in presence of NaCl loaded external vesicles by fluorescence method
[21] = Ionophoric activity across pyranine dye encapsulated pH 7 egg yolk L-alpha-phosphatidylcholine-based liposomal membranes assessed as nitrate ion transport by measuring induction of pH discharge at 0.25 mol% after 20 mins in presence of NaNO3 loaded external vesicles by fluorescence method
A549 [22] = assay: Cytotoxicity against human A549 cells assessed as reduction in cell viability at 50 uM after 48 hrs by MTT assay relative to control; format: functional; details: A549, 48 h
[23] = Ionophoric activity across lucigenin probe encapsulated pH 7 egg yolk L-alpha-phosphatidylcholine-based large unilamellar vesicles loaded with Na2SO4 assessed as chloride ion efflux at 1 mol% after 20 mins in presence of NaCl/Na2SO4 loaded external vesicles by fluorescence method
[24] = Ionophoric activity across pyranine dye encapsulated pH 7 egg yolk L-alpha-phosphatidylcholine-based liposomal membranes assessed as chloride ion transport by measuring initial rate constant for induction of pH discharge at 0.5 mol% after 20 mins in presence of NaCl loaded external vesicles by fluorescence method (reference value: 5.03 +/- 1.02 10^-3/min)
HeLa [25] = assay: Cytotoxicity against human HeLa cells assessed as reduction in cell viability at 50 uM after 48 hrs by MTT assay relative to control; format: functional
[26] = Ionophoric activity across pyranine dye encapsulated pH 7 egg yolk L-alpha-phosphatidylcholine-based liposomal membranes assessed as chloride ion transport by measuring initial rate constant for induction of pH discharge at 3.91 x 10^-3 mol% after 20 mins in presence of NaCl loaded external vesicles by fluorescence method (reference value: 5.03 +/- 1.02 10^-3/min)
MCF7 [27] = assay: Cytotoxicity against human MCF7 cells assessed as reduction in cell viability after 48 hrs by MTT assay; format: functional, cell-based; details: MCF7, 48 h
[28] = Ionophoric activity across lucigenin probe encapsulated pH 7 egg yolk L-alpha-phosphatidylcholine-based large unilamellar vesicles loaded with Na2SO4 assessed as chloride ion efflux at 1.56 x 10^-2mol% after 20 mins in presence of NaCl loaded external vesicles by fluorescence method
[29] = Ionophoric activity across pyranine dye encapsulated pH 7 egg yolk L-alpha-phosphatidylcholine-based liposomal membranes assessed as chloride ion transport by measuring initial rate constant for induction of pH discharge at 9.77 x 10^-4 mol% after 20 mins in presence of NaCl loaded external vesicles by fluorescence method (reference value: 5.03 +/- 1.02 10^-3/min)
[30] = Ionophoric activity across pyranine dye encapsulated pH 7 egg yolk L-alpha-phosphatidylcholine-based liposomal membranes assessed as iodide ion transport by measuring induction of pH discharge at 1.95 x 10^-3 mol% after 20 mins in presence of NaI loaded external vesicles by fluorescence method
[31] = Ionophoric activity across pyranine dye encapsulated pH 7 egg yolk L-alpha-phosphatidylcholine-based liposomal membranes assessed as chloride ion transport by measuring induction of pH discharge at 1.95 x 10^-3 mol% after 20 mins in presence of RbCl loaded external vesicles by fluorescence method
[32] = Ionophoric activity across pyranine dye encapsulated pH 7 POPC-cholesterol-based liposomal membranes assessed as chloride ion transport by measuring induction of pH discharge at 7.81 x 10^-3mol% after 20 mins in presence of NaCl loaded external vesicles by fluorescence method
[33] = Ionophoric activity across pyranine dye encapsulated pH 7 egg yolk L-alpha-phosphatidylcholine-based liposomal membranes assessed as chloride ion transport by measuring initial rate constant for induction of pH discharge at 1.95 x 10^-3 mol% after 20 mins in presence of NaCl loaded external vesicles by fluorescence method (reference value: 5.03 +/- 1.02 10^-3/min)
[34] = Ionophoric activity across pyranine dye encapsulated pH 7 egg yolk L-alpha-phosphatidylcholine-based liposomal membranes assessed as chloride ion transport by measuring induction of pH discharge at 1.95 x 10^-3 mol% after 20 mins in presence of LiCl loaded external vesicles by fluorescence method
[35] = Ionophoric activity across pyranine dye encapsulated pH 7 egg yolk L-alpha-phosphatidylcholine-based liposomal membranes assessed as chloride ion transport by measuring induction of pH discharge at 1.95 x 10^-3 mol% after 20 mins in presence of CsCl loaded external vesicles by fluorescence method
[36] = Ionophoric activity across pyranine dye encapsulated pH 7 egg yolk L-alpha-phosphatidylcholine-based liposomal membranes assessed as chloride ion transport by measuring initial rate constant for induction of pH discharge at 4.88 x 10^-4 mol% after 20 mins in presence of NaCl loaded external vesicles by fluorescence method (reference value: 5.03 +/- 1.02 10^-3/min)
HepG2 [37] = assay: Cytotoxicity against human HepG2 cells assessed as reduction in cell viability after 48 hrs by MTT assay; format: functional, cell-based; details: HepG2, 48 h
HeLa [38] = assay: Cytotoxicity against human HeLa cells assessed as reduction in cell viability after 48 hrs by MTT assay; format: functional, cell-based
[39] = Ionophoric activity across pyranine dye encapsulated pH 7 egg yolk L-alpha-phosphatidylcholine-based liposomal membranes assessed as chloride ion transport by measuring induction of pH discharge at 1.95 x 10^-3 mol% after 20 mins in presence of KCl loaded external vesicles by fluorescence method
[40] = Ionophoric activity across pyranine dye encapsulated pH 7 egg yolk L-alpha-phosphatidylcholine-based liposomal membranes assessed as chloride ion transport by measuring induction of pH discharge at 1.95 x 10^-3 mol% after 20 mins in presence of NaCl loaded external vesicles by fluorescence method
A549 [41] = assay: Cytotoxicity against human A549 cells assessed as reduction in cell viability after 48 hrs by MTT assay; format: functional, cell-based; details: A549, 48 h
[42] = Ionophoric activity across pyranine dye encapsulated pH 7 egg yolk L-alpha-phosphatidylcholine-based liposomal membranes assessed as bromide ion transport by measuring induction of pH discharge at 1.95 x 10^-3 mol% after 20 mins in presence of NaBr loaded external vesicles by fluorescence method
L02 = assay: Cytotoxicity against human LO2 cells assessed as reduction in cell viability after 48 hrs by MTT assay; format: cell-based; details: L02, 48 h
[43] = Ionophoric activity across pyranine dye encapsulated pH 7 egg yolk L-alpha-phosphatidylcholine-based liposomal membranes assessed as nitrate ion transport by measuring induction of pH discharge at 1.95 x 10^-3 mol% after 20 mins in presence of NaNO3 loaded external vesicles by fluorescence method
[44] = Ionophoric activity across pyranine dye encapsulated pH 7 egg yolk L-alpha-phosphatidylcholine-based liposomal membranes assessed as chloride ion transport by measuring initial rate constant for induction of pH discharge at 7.81 x 10^-3 mol% after 20 mins in presence of NaCl loaded external vesicles by fluorescence method (reference value: 5.03 +/- 1.02 10^-3/min)
[45] = Ionophoric activity across lucigenin probe encapsulated pH 7 egg yolk L-alpha-phosphatidylcholine-based large unilamellar vesicles loaded with Na2SO4 assessed as chloride ion efflux at 1.56 x 10^-2mol% after 20 mins in presence of NaCl/Na2SO4 loaded external vesicles by fluorescence method
[46] = Ionophoric activity across pyranine dye encapsulated pH 7 egg yolk L-alpha-phosphatidylcholine-based liposomal membranes assessed as chloride ion transport by measuring initial rate constant for induction of pH discharge at 1.56 x 10^-2 mol% after 20 mins in presence of NaCl loaded external vesicles by fluorescence method (reference value: 5.03 +/- 1.02 10^-3/min)

## O=[N+]([O-])c1cc(-c2nc3ccccc3[nH]2)cc(-c2nc3ccccc3[nH]2)c1
[1]
  Activity: inactive
[2]
  Activity: Active
[3]
  Activity: Active
HepG2 [4]
  inhibition at 50 µM: -2.6%
[5]
  Activity: inactive
[6]
  K: 1.61 ×10⁻¹ /min
MCF7 [7]
  inhibition at 50 µM: 48.2%
[8]
  K: 4.89 ×10⁻² /min
[9]
  K: 3.38 ×10⁻² /min
[10]
  Activity: Active
[11]
  Activity: inactive
[12]
  Activity: Active
[13]
  Activity: Active
[14]
  Activity: Active
[15]
  Activity: inactive
[16]
  fold change (FC): 13
[17]
  K: 6.81 ×10⁻² /min
[18]
  Ka: 3.94 ×10³ /M
[19]
  Activity: Dose-dependent effect
  EC50: 0.49 mol%
[19]; read-out: EC50
  EC50: 6.5 µM
[20]
  Activity: Active
[21]
  Activity: inactive
A549 [22]
  inhibition at 50 µM: 45.9%
[23]
  Activity: inactive
[24]
  K: 1.28 ×10⁻¹ /min
HeLa [25]
  inhibition at 50 µM: 42.5%

## O=[N+]([O-])c1cc(-c2nc3ccc([N+](=O)[O-])cc3[nH]2)cc(-c2nc3ccc([N+](=O)[O-])cc3[nH]2)c1
[26]
  K: 1.35 ×10⁻² /min
MCF7 [27]
  IC50: 1.2 µM
[2]
  Activity: Active
[28]
  Activity: inactive
[29]
  K: 6.25 ×10⁻² /min
HepG2 [4]
  inhibition at 50 µM: 81.3%
[30]
  Activity: inactive
[31]
  Activity: Active
[32]
  Activity: inactive
[33]
  K: 8.98 ×10⁻² /min
MCF7 [7]
  inhibition at 50 µM: 94.7%
[34]
  Activity: Active
[35]
  Activity: Active
[36]
  K: 2.43 ×10⁻² /min
[16]
  fold change (FC): 2370
[18]
  Ka: 8.18 ×10³ /M
[19]
  Activity: Dose-dependent effect
  EC50: 2.73 ×10⁻³ mol%
[19]; read-out: EC50
  EC50: 0.036 µM
HepG2 [37]
  IC50: 11.1 µM
A549 [22]
  inhibition at 50 µM: 78.7%
HeLa [38]
  IC50: 1.2 to 1.3 µM
[39]
  Activity: Active
[40]
  Activity: Active
A549 [41]
  IC50: 13.6 µM
[42]
  Activity: inactive
L02
  IC50: 44.9 µM
[43]
  Activity: inactive
[44]
  K: 1.81 ×10⁻¹ /min
[45]
  Activity: inactive
[46]
  K: 1.99 ×10⁻¹ /min
HeLa [25]
  inhibition at 50 µM: 94.1%

Reference: ChEMBL document CHEMBL4152235, “Synthesis, anionophoric activity and apoptosis-inducing bioactivity of benzimidazolyl-based transmembrane anion transporters” (Eur J Med Chem, 2018)
